Reference: US9938270B2, “Mono-phosphate salt of 6-fluoro-2-[4-(pyridin-2-yl)but-3-yn-1-yl]imidazo[1,2A]pyridine (dipraglurant) and polymorphs thereof as negative allosteric modulator of MGLU5 receptor” (Addex Pharma S.A., priority 2013, dated 2018)
≈ marks a conversion by molar mass, not a printed value.

Assay: aqueous solubility
Type: physicochemical
Conditions: aqueous medium, aqueous buffer; at all relevant physiological pH

solubility [mg/mL]	Structure (SMILES)
0.5 (≈ 1880 µM)	Fc1ccc2nc(CCC#Cc3ccccn3)cn2c1 [free base, 6-Fluoro-2-[4-(pyridin-2-yl)but-3-yn-1-yl]imidazo[1,2-a]pyridine]
21 to 32.5	Fc1ccc2nc(CCC#Cc3ccccn3)cn2c1.O=P(O)(O)O [mono-phosphate salt, 6-fluoro-2-[4-(pyridin-2-yl)but-3-yn-1-yl]imidazo[1,2-a]pyridine mono-phosphate salt]
